Publication PMC11881035, “^68Ga-Labeled Glycopeptides as Effective Tools for Liver Function Imaging” (Molecular Pharmaceutics, 2025)
Like-named read-outs stand apart in the source and are kept apart here.

Key:
log D determination = format: physicochemical; conditions: read-out: log D
Method: (§1) The ^68Ge/^68Ga generator, devices for analytical HPLC, semipreparative HPLC, mass spectrometry, radio-thin layer chromatography, gamma counter and animal models for biodistribution and imaging studies including the image reconstruction procedures were the same as described before.[22] Stability assays in PBS and human blood serum, protein binding as well as determination of log D values followed established protocols.[25] Binding affinities (IC50) of selected ligands were determined in an isolated receptor-based assay according to a previously published procedure with minor modifications.[22] Dilutions of nonradioactive complexes were made with PBS + 0.1% BSA (10^–5–10^–12 M). Preparation of [^125I]I-Asialoorosomucoid which serves as the radioactive standard ligand has been published recently.[21]

[1] = complex stability in human blood serum; format: in vitro ADME
Method: as §1

complex stability in PBS = format: physicochemical
Method: as §1

[2] = biodistribution in healthy BALB/c mice; conditions: mouse, in vivo; for tissue uptake at 10 min: 10 min p.i.; for tissue uptake at 0.5 h: 30 min p.i.; for tissue uptake at 1 h: 60 min p.i.
Method: as §1
Animal experiments were performed in accordance with the Austrian animal experiments law (BGBl. I Nr. 114/2012) and the institution’s animal welfare standards as approved by the Austrian Federal Ministry of Education, Science and Research (BMBWF, 2022–0.311.708). Imaging experiments were conducted at Werner Siemens Imaging Center (Tübingen, Germany) according to the German animal welfare act as approved by the local authorities (R5/19 G, R09/21 G).
Figure 2 Biodistribution data (% ID/g) of ^68Ga-labeled NODAGA-GalNAc-NonaLysan, NODAGA-NonaLysan, NODAGA-HexaLysan, and NODAGA-TriLysan in healthy BALB/c mice at 10, 30, and 60 min p.i. (100 pmol, 1 MBq).

ASGR = target: T1, ASGR (Mus musculus, UniProt P24721+P34927); experiment: blocking experiment, coinjection of N-acetylgalactosamine, biodistribution in BALB/c mice; conditions: in vivo, 30 min p.i., 27.7 μmol N-acetylgalactosamine
T1 construct: from tissue; host or cells: liver and other organs of living healthy female BALB/c mice
T1 sequence (P34927 1-284): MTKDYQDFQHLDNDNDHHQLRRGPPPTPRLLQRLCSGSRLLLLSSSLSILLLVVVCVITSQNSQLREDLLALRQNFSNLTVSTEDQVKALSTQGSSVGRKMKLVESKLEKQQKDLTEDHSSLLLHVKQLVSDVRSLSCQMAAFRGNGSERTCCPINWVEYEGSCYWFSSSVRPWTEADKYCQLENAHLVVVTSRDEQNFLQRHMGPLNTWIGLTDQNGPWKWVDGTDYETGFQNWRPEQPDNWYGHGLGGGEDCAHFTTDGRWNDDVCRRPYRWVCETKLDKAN
T1 sequence (P24721 1-301): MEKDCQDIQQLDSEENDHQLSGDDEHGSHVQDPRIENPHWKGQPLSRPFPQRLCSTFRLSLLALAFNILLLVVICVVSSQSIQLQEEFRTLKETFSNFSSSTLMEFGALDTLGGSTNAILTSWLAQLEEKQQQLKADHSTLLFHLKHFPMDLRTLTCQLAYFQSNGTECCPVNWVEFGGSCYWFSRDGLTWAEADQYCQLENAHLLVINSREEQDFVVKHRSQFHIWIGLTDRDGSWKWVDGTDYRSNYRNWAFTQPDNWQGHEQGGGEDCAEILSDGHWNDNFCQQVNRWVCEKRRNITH
Method: Less liver uptake was found for [^68Ga]Ga-NODAGA-HexaLysan (55.5 ± 7.4% ID/g, 30 min p.i.) and least for [^68Ga]Ga-NODAGA-TriLysan (9.4 ± 2.0% ID/g, 30 min p.i.). […] However, an increasing activity accumulation in the intestine was found for [^68Ga]Ga-NODAGA-NonaLysan, [^68Ga]Ga-NODAGA-GalNAc-Nonalysan, and [^68Ga]Ga-NODAGA-HexaLysan over time. Nevertheless, liver-to-organ ratios were highest for [^68Ga]Ga-NODAGA-NonaLysan (Figure 3). Lower liver-to-organ ratios were found for the GalNAc derivative due to higher off-target binding in the pancreas, stomach, heart, muscle, lung, and femur. […] Coinjection of both nonamers with a large excess of N-acetylgalactosamine led to a statistically significant reduction of liver uptake indicating specific interactions of the tracers with their target (Figure 4). As a consequence of the reduced liver uptake also a reduction of the intestinal uptake was observed.
Figure 4 Data (% ID/g) from the blocking experiments using ^68Ga-labeled NODAGA-GalNAc-NonaLysan and NODAGA-NonaLysan in healthy BALB/c mice at 30 min p.i. Blocking was carried out using 27.7 μmol of N-acetylgalactosamine (**p ≤ 0.01; *p ≤ 0.05).

[3] = protein binding in human serum; format: in vitro ADME; conditions: human, serum, read-out: protein binding (%) (converted)
Method: as §1

## CC(=O)N[C@@H]1[C@@H](O)[C@@H](O)[C@@H](CO)O[C@H]1n1cc(CCCCC(=O)NCCCC[C@H](NC(=O)CCCNC(=O)CCC(C(=O)O)N2CCN(CC(=O)O)CCN(CC(=O)O)CC2)C(=O)NCC(=O)NCC(=O)N[C@@H](CCCCNC(=O)CCCCc2cn([C@@H]3O[C@H](CO)[C@H](O)[C@H](O)[C@H]3NC(C)=O)nn2)C(=O)NCC(=O)NCC(=O)N[C@@H](CCCCNC(=O)CCCCc2cn([C@@H]3O[C@H](CO)[C@H](O)[C@H](O)[C@H]3NC(C)=O)nn2)C(=O)NCC(=O)NCC(=O)N[C@@H](CCCCNC(=O)CCCCc2cn([C@@H]3O[C@H](CO)[C@H](O)[C@H](O)[C@H]3NC(C)=O)nn2)C(=O)NCC(=O)NCC(=O)N[C@@H](CCCCNC(=O)CCCCc2cn([C@@H]3O[C@H](CO)[C@H](O)[C@H](O)[C@H]3NC(C)=O)nn2)C(=O)NCC(=O)NCC(=O)N[C@@H](CCCCNC(=O)CCCCc2cn([C@@H]3O[C@H](CO)[C@H](O)[C@H](O)[C@H]3NC(C)=O)nn2)C(=O)NCC(=O)NCC(=O)N[C@@H](CCCCNC(=O)CCCCc2cn([C@@H]3O[C@H](CO)[C@H](O)[C@H](O)[C@H]3NC(C)=O)nn2)C(=O)NCC(=O)NCC(=O)N[C@@H](CCCCNC(=O)CCCCc2cn([C@@H]3O[C@H](CO)[C@H](O)[C@H](O)[C@H]3NC(C)=O)nn2)C(=O)NCC(=O)NCC(=O)N[C@@H](CCCCNC(=O)CCCCc2cn([C@@H]3O[C@H](CO)[C@H](O)[C@H](O)[C@H]3NC(C)=O)nn2)C(=O)NCC(=O)NCC(N)=O)nn1 (stereo partly drawn) [[^68Ga]Ga-NODAGA-GalNAc-NonaLysan, metal not drawn]
Log D determination
  logD: -4.05
[1]; 2 min
  complex stability in serum (% intact ligand): 98.8 ± 0.1%
[1]; 30 min
  complex stability in serum (% intact ligand): 98.8%
[1]; 60 min
  complex stability in serum (% intact ligand): 99.0 ± 0.2%
[1]; 120 min
  complex stability in serum (% intact ligand): 98.8 ± 0.2%
Complex stability in PBS; 2 min
  complex stability in PBS (% intact ligand): 99.1%
Complex stability in PBS; 30 min
  complex stability in PBS (% intact ligand): 99.0%
Complex stability in PBS; 60 min
  complex stability in PBS (% intact ligand): 99.1%
Complex stability in PBS; 120 min
  complex stability in PBS (% intact ligand): 99.1%
[2]; read-out: Blood uptake
  tissue uptake at 10 min: 0.9 ± 0.5 %ID/g
  tissue uptake at 0.5 h: 0.3 ± 0.1 %ID/g
  tissue uptake at 1 h: 0.3 ± 0.1 %ID/g
[2]; read-out: Femur uptake
  tissue uptake at 10 min: 0.9 ± 0.4 %ID/g
  tissue uptake at 0.5 h: 0.8 ± 0.1 %ID/g
  tissue uptake at 1 h: 0.9 ± 0.4 %ID/g
[2]; read-out: Heart uptake
  tissue uptake at 10 min: 1.9 ± 0.5 %ID/g
  tissue uptake at 0.5 h: 1.7 ± 0.2 %ID/g
  tissue uptake at 1 h: 1.7 ± 0.1 %ID/g
[2]; read-out: Intestine uptake
  tissue uptake at 10 min: 1.3 ± 0.3 %ID/g
  tissue uptake at 0.5 h: 3.5 ± 0.2 %ID/g
  tissue uptake at 1 h: 5.6 ± 0.03 %ID/g
[2]; read-out: Kidneys uptake
  tissue uptake at 10 min: 3.6 ± 2.7 %ID/g
  tissue uptake at 0.5 h: 1.5 ± 0.2 %ID/g
  tissue uptake at 1 h: 1.3 ± 0.02 %ID/g
[2]; read-out: Liver uptake
  tissue uptake at 10 min: 69.4 ± 5 %ID/g
  tissue uptake at 0.5 h: 77.6 ± 8 %ID/g
  tissue uptake at 1 h: 57.6 ± 0.7 %ID/g
[2]; read-out: Lung uptake
  tissue uptake at 10 min: 1.5 ± 0.1 %ID/g
  tissue uptake at 0.5 h: 1.5 ± 0.2 %ID/g
  tissue uptake at 1 h: 1.2 ± 0.04 %ID/g
[2]; read-out: Muscle uptake
  tissue uptake at 10 min: 1.3 ± 0.3 %ID/g
  tissue uptake at 0.5 h: 1.2 ± 0.1 %ID/g
  tissue uptake at 1 h: 1.1 ± 0.1 %ID/g
[2]; read-out: Pancreas uptake
  tissue uptake at 10 min: 5 ± 0.5 %ID/g
  tissue uptake at 0.5 h: 5.6 ± 0.6 %ID/g
  tissue uptake at 1 h: 5 ± 0.6 %ID/g
[2]; read-out: Spleen uptake
  tissue uptake at 10 min: 0.3 ± 0.1 %ID/g
  tissue uptake at 0.5 h: 0.3 ± 0.03 %ID/g
  tissue uptake at 1 h: 0.3 ± 0.1 %ID/g
[2]; read-out: Stomach uptake
  tissue uptake at 10 min: 2.3 ± 0.4 %ID/g
  tissue uptake at 0.5 h: 2.7 ± 1 %ID/g
  tissue uptake at 1 h: 2.2 %ID/g
ASGR; read-out: Blood uptake
  tissue uptake at 0.5 h: 0.4 ± 0.1 %ID/g
ASGR; read-out: Femur uptake
  tissue uptake at 0.5 h: 0.7 ± 0.3 %ID/g
ASGR; read-out: Heart uptake
  tissue uptake at 0.5 h: 0.8 ± 0.1 %ID/g
ASGR; read-out: Intestine uptake
  tissue uptake at 0.5 h: 1.9 ± 0.4 %ID/g
ASGR; read-out: Kidneys uptake
  tissue uptake at 0.5 h: 1.9 ± 0.4 %ID/g
ASGR; read-out: Liver uptake
  tissue uptake at 0.5 h: 52.9 ± 3.2 %ID/g
ASGR; read-out: Lung uptake
  tissue uptake at 0.5 h: 1.3 ± 0.3 %ID/g
ASGR; read-out: Muscle uptake
  tissue uptake at 0.5 h: 1 ± 0.3 %ID/g
ASGR; read-out: Pancreas uptake
  tissue uptake at 0.5 h: 1.5 ± 0.8 %ID/g
ASGR; read-out: Spleen uptake
  tissue uptake at 0.5 h: 0.3 ± 0.02 %ID/g
ASGR; read-out: Stomach uptake
  tissue uptake at 0.5 h: 2.4 ± 0.9 %ID/g
[3]; 2 min
  fraction unbound: 0.858
[3]; 30 min
  fraction unbound: 0.86
[3]; 60 min
  fraction unbound: 0.826
[3]; 120 min
  fraction unbound: 0.884
